Experimental data reported in ChEMBL document CHEMBL1201862, “PubChem BioAssay data set” (2004).
The source made the active and inactive calls.

Key:
Cytochrome P450 3A4 [1] = target: T1, Cytochrome P450 3A4 (Homo sapiens, UniProt P08684);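 note: CYP3A4 tested as one member of a cytochrome P450 panel screen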
Cytochrome P450 3A4 [2] = target: T1, Cytochrome P450 3A4; remark: listed apart in the source
[3] = cytotoxicity in HEK-293T cells, dose response, cytotoxicity control for BCR NF-kB inhibitor project, luminescence, B-cell screen hits (AID 489021); type: functional, cell-based;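 note: HEK-293T cells carrying an NF-kB luciferase reporter; cells exposed to compound for about 14 hours before viability readout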
[4] = target: FAD-linked sulfhydryl oxidase ALR (Homo sapiens, UniProt P55789); experiment: inhibitors of human ALR sulfhydryl oxidase, dose response, biochemical, H2O2 detection, luminescence, cherry-pick (AID 493248)
[5] = target: T2, Histone-lysine N-methyltransferase NSD2 (Homo sapiens, UniProt O96028); type: biochemical
T2 sequence (O96028 whole entry): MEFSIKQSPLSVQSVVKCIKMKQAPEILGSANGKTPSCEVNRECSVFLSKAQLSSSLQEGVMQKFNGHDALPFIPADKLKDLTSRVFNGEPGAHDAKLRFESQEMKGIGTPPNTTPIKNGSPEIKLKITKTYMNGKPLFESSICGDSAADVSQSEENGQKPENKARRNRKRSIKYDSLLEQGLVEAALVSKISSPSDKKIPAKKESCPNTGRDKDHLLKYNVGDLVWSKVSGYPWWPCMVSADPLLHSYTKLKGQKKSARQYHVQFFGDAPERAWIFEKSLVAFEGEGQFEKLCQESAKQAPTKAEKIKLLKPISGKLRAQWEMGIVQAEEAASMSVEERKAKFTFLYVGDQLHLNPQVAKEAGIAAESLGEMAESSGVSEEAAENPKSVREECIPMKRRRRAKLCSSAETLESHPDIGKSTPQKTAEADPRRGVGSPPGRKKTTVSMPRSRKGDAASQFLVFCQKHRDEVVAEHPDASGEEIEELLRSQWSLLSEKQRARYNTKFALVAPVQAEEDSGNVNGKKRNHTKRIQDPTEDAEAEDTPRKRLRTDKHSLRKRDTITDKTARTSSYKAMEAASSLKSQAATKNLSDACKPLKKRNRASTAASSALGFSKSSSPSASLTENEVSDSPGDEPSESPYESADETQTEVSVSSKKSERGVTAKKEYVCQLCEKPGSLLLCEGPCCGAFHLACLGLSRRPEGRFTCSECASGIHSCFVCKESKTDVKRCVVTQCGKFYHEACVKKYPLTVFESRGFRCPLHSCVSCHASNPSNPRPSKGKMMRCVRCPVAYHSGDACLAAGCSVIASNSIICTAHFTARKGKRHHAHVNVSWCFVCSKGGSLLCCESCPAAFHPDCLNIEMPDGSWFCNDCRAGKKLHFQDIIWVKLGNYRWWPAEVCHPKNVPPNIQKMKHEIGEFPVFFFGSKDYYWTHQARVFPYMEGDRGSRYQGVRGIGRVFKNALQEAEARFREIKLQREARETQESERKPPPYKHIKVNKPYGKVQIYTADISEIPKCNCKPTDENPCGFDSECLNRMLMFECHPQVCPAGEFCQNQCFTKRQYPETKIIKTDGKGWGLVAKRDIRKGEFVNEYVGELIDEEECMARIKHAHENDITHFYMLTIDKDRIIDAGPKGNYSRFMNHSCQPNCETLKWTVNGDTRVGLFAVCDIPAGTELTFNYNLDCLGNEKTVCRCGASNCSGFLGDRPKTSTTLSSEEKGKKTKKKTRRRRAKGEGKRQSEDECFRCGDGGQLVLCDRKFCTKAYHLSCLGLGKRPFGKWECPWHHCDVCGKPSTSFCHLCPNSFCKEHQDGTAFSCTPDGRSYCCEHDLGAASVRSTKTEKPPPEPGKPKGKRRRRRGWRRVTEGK

cells = type: functional
[6] = test system: Streptococcus sp. 'group A'; experiment: growth inhibition of control SK(-) GAS strain, dose response, counter-screen for streptokinase expression inhibitor project, luminescence, kanamycin, BacTiterGlo, confirmation (AID 1900); type: functional, organism-based
[7] = THP-1 cell cytotoxicity, dose response, cytotoxicity control for non-replicating M. tuberculosis project (AID 489025); type: functional
[8] = Vero E6 cell cytotoxicity, dose response, cytotoxicity control for non-replicating M. tuberculosis project, secondary assay (AID 492998); type: functional, VeroE6; conditions: Vero C1008
Streptococcus = experiment: Group A Streptococcus viability loss, dose response, counter-screen for streptokinase expression inhibitor project, luminescence, BacTiterGlo (AID 1915); type: functional, organism-based;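 note: potency for reduction of bacterial viability or growth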
[9] = microbe, parasite or virus in culture; type: functional; conditions: Mycobacterium tuberculosis
[10] = target: Induced myeloid leukemia cell differentiation protein Mcl-1 (Homo sapiens, UniProt Q07820); type: functional
Cytochrome P450 2C19 = Cytochrome P450 2C19 (Homo sapiens, UniProt P33261); experiment: Cytochrome panel assay with activity outcomes. Panel member name: p450-cyp2c19 Compounds with AC50 equal or less than 10 uM are considered active; type: functional; conditions: read-out: AC50
[11] = Luminescence Cell-Based Dose Response HTS to Identify Activators of Luciferase Translation or Activity in H4 […] Cells. [Related pubchem assays: 1829 (Project Summary), 1814 (Primary HTS)]; type: functional
[12] = Luminescence Cell-Based Dose Confirmation HTS to Identify Activators of 5'UTR Stem-Loop Driven Alpha-Synuclein mRNA Translation in H4 Neuroglioblastoma Cells. [Related pubchem assays: 1829 (Project Summary), 1814 (Primary HTS)]; type: functional
H4 = experiment: Luminescence Cell-Based Dose Response HTS to Identify Activators of 5'UTR Stem-Loop Driven Prion Protein mRNA Translation in H4 Neuroglioblastoma Cells. [Related pubchem assays: 1829 (Project Summary), 1814 (Primary HTS)]; type: functional; conditions: Homo sapiens
Cytochrome P450 2C9 = Cytochrome P450 2C9 (Homo sapiens, UniProt P11712)
Streptokinase A = target: T3, Streptokinase A (Streptococcus pyogenes serotype M1, UniProt P10520); experiment: S. pyogenes streptokinase expression inhibitors, potency, dose response, plasminogen activation absorbance, OD405 (AID 1914); type: functional, Streptococcus pyogenes M1 GAS;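 note: secreted streptokinase activity via plasminogen activation per viability signal from cell pellet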
T3 sequence (P10520 whole entry): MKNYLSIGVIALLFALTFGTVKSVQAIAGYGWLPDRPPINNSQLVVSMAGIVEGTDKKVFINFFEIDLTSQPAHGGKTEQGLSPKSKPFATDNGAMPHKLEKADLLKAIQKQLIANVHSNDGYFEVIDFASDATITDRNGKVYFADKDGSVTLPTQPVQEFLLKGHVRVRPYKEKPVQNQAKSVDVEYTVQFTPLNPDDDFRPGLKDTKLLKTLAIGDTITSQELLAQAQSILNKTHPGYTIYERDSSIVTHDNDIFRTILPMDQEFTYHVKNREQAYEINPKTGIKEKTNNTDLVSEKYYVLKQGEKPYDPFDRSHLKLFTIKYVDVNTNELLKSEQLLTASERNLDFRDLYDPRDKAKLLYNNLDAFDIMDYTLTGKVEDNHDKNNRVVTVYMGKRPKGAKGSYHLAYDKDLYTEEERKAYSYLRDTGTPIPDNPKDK

[13] = target: T4, Heat shock factor protein 1 (Mus musculus, UniProt P38532); experiment: inhibition of MG132-induced HSE-luciferase signal, confirmation, cell-based, NIH3T3, luminescence, dose retest (AID 2382); type: functional;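 note: NIH3T3 fibroblasts with HSF1-driven luciferase reporter stressed by proteasome inhibitor MG132; luminescence from HSF1-driven luciferase expression after 8 hours of MG132 stress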
T4 sequence (P38532 whole entry): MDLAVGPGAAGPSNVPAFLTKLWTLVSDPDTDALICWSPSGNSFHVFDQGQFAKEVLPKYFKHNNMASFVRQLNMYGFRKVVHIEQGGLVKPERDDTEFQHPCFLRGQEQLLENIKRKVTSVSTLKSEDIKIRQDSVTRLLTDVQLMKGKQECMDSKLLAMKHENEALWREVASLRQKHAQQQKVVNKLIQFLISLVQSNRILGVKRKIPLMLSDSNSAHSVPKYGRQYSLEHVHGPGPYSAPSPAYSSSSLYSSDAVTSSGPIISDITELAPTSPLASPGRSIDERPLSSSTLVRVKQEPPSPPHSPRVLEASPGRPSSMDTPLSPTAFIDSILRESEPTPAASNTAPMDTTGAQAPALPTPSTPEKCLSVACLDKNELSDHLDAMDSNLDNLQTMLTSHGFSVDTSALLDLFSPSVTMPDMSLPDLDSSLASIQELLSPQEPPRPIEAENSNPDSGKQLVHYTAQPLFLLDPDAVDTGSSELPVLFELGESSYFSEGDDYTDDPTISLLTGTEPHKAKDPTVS

Estrogen receptor beta = Estrogen receptor beta (Homo sapiens, UniProt Q92731);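 note: recombinant ER-beta bound to coactivator SRC1 peptide in presence of estradiol agonist; inhibitors block coactivator peptide binding and lower the FRET signal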
[14] = target: T4, Heat shock factor protein 1; experiment: HSF1 potentiators in luciferase reporter cells, confirmation, cell-based, NIH3T3, luminescence, dose retest (AID 435004); type: functional;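 note: stress induced by proteasome inhibitor MG132 added 30 min after compound; luciferase reporter driven by HSF1 response element in NIH3T3 cells; actives raise luminescence as potentiators of the MG132 stress response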

T1 sequence (P08684 whole entry): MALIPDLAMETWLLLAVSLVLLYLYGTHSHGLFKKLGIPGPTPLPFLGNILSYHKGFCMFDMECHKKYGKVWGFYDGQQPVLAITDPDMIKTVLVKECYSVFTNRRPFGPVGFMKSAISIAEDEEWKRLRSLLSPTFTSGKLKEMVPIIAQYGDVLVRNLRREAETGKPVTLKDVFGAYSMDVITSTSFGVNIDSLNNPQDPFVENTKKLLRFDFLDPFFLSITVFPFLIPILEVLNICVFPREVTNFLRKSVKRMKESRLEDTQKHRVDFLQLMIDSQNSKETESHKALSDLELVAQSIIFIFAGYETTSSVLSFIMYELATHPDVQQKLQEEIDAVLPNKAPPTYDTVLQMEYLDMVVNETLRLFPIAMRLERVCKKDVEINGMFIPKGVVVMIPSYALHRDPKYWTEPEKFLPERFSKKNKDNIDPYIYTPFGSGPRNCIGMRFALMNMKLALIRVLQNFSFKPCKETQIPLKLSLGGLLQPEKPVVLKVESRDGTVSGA
Cytochrome P450 2C19, sequence (P33261 whole entry): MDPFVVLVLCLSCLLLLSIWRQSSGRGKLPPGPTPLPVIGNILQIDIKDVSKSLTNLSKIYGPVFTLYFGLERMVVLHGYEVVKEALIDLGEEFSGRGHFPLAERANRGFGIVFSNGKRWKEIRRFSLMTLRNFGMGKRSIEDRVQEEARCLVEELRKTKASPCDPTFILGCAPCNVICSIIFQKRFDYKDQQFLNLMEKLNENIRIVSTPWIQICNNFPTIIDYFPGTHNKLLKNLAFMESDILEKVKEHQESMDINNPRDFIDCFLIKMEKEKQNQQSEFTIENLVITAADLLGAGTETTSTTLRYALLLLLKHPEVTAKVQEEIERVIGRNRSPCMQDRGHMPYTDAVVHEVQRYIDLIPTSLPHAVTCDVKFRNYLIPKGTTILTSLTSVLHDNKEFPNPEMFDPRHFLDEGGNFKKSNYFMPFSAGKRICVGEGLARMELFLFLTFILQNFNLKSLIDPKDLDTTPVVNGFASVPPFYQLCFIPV
FAD-linked sulfhydryl oxidase ALR, sequence (P55789 whole entry): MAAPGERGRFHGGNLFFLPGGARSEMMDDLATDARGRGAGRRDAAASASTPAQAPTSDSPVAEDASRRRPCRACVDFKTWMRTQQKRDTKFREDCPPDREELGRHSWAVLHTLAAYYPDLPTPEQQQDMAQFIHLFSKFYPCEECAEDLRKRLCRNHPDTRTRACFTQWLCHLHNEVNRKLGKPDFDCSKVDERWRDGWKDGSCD
Estrogen receptor beta, sequence (Q92731 whole entry): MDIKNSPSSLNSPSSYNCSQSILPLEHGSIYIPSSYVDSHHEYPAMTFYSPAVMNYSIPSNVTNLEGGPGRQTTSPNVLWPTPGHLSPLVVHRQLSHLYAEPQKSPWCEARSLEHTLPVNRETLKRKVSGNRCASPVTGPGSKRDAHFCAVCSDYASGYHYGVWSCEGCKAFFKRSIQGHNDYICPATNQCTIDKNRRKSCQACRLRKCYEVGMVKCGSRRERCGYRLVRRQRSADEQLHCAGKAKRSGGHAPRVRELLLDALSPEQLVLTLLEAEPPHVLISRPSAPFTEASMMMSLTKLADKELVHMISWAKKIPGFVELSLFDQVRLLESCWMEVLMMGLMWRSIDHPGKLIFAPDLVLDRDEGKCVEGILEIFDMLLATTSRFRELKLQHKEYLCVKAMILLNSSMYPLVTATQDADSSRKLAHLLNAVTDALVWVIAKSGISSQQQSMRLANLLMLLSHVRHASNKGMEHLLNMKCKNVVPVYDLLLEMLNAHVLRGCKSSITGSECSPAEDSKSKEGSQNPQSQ
Induced myeloid leukemia cell differentiation protein Mcl-1, sequence (Q07820 whole entry): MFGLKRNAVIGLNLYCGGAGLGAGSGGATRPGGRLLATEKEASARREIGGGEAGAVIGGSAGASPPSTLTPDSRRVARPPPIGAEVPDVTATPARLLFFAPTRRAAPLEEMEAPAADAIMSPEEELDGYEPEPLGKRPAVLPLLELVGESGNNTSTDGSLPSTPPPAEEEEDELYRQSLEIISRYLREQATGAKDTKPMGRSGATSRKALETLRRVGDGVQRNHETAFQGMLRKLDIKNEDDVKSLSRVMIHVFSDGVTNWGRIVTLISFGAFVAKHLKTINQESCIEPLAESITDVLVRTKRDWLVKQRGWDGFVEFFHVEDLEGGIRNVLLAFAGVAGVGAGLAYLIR
Cytochrome P450 2C9, sequence (P11712 whole entry): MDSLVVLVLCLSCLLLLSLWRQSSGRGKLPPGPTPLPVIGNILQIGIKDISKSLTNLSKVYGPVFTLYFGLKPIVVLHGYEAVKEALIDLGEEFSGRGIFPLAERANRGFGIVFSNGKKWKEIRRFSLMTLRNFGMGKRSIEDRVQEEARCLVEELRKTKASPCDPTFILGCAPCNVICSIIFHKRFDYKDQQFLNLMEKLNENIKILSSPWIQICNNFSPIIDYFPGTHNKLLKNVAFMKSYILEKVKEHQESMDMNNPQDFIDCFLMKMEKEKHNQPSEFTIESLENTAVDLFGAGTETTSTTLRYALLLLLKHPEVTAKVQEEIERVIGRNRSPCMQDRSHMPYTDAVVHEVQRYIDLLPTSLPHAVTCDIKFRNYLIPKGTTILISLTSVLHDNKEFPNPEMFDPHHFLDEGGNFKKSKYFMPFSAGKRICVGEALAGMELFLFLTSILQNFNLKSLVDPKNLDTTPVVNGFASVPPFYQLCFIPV

C[C@H](O/N=C1/[C@H]2O[C@@H]2[C@@H](O)[C@H]2[C@H]1CCn1c(=O)n(-c3ccccc3)c(=O)n12)c1cn([C@H](CO)Cc2ccccc2)nn1
AC50 (Cytochrome P450 3A4 [1]): 3.98 µM (inconclusive)
AC50 (Cytochrome P450 3A4 [2]): 3.98 µM (inconclusive)

COc1ccc(C2=NCc3nnc(C)n3-c3ccc(Cl)cc32)cc1Cl
IC50 [3]: > 80 µM (inactive)

COc1ccc(S(=O)(=O)N2CCN(CC(=O)c3ccc(O)c(O)c3)CC2)cc1
AC50 [4]: 2.33 µM (active)
AC50 [5]: 5.33 µM (active)

Cc1ccc2nc(N/C(N)=N/C(=O)NC3CCCCC3)nc(C)c2c1
IC50 (cells): 3.74 µM (active)
EC50 [6]: 5.35 µM (active)
CC50 [7]: 23.2 µM (active)
CC50 [8]: 18.5 µM (active)
EC50 (Streptococcus): > 150 µM (not active)
CC50 [9]: 21.1 µM (active)

COc1cc(/C=N/NC(=O)c2cc(-c3ccco3)nc3ccccc23)cc(OC)c1O
AC50 [4]: 0.13 µM (active)
IC50 [10]: 8.35 µM (active)

CCCC(=O)N1CCN(c2ccc(NC(=O)c3ccc(OCC)c([N+](=O)[O-])c3)cc2)CC1
AC50 (Cytochrome P450 3A4 [1]): inconclusive
AC50 (Cytochrome P450 2C19): 28.2 µM (inconclusive)

CC(=O)Oc1ccc2occ(-c3ccccc3)c2c1
EC50 [11]: 16.7 µM (active)
EC50 [12]: 13.8 µM (active)
EC50 (H4): 14 µM (active)

CCOC(=O)C(=O)N(Nc1ccc(C)cc1)c1ccc(C)cc1
EC50 [11]: 82.6 µM (active)
EC50 [12]: 7.04 µM (active)

COc1ccc(/C=C/c2ccccc2)cc1[C@H]1[C@H]2C=CC[C@@H](C)[C@@H]2C(=O)N1Cc1ccccc1
IC50 [3]: > 80 µM (inactive)

COc1ccc(NC(=O)N2CCC3(CC2)CCN(C(=O)c2cccc(F)c2)CC3)cc1
AC50 (Cytochrome P450 3A4 [1]): inconclusive

Nc1nc(CSc2ncccn2)nc(Nc2ccccc2)n1
EC50 [11]: 0.504 µM (active)
EC50 [12]: 3.07 µM (active)

Cn1c(=O)c(-c2ccc(Cl)cc2)nc2cnc(N3CCOCC3)nc21
AC50 (Cytochrome P450 3A4 [1]): inconclusive
AC50 (Cytochrome P450 2C9): inconclusive

CC1CCN(c2ccc(-c3ccc(NC(=O)c4ccco4)cc3)nn2)CC1
EC50 [6]: > 150 µM (not active)
EC50 [11]: > 120 µM (not active)
EC50 (Streptococcus): > 150 µM (not active)
EC50 [12]: 18.6 µM (active)
EC50 (H4): 120 µM (active)
EC50 (Streptokinase A): > 150 µM (not active)

Cc1cc(N2CCOCC2)nc2ccc(Cc3ccc4nc(N5CCOCC5)cc(C)c4c3)cc12
AC50 (Cytochrome P450 3A4 [1]): inconclusive

O=C(O)CCN1C(=O)/C(=C/c2nc3ccccc3[nH]2)SC1=S
IC50 [3]: > 80 µM (inactive)
EC50 [13]: 7.78 µM (active)

O=C(COc1ccccc1Cl)c1ccc2c(c1)CCCC2
EC50 [11]: 16.7 µM (active)
EC50 (H4): 10 µM (active)

Brc1ccc(C2Nc3cccc4cccc(c34)N2)s1
IC50 [10]: 9.46 µM (active)

COC(=O)c1ccc(CC(=O)c2c(C)cc(O)cc2O)o1
IC50 (Estrogen receptor beta): 15 µM (active)

COc1ccc(C(=O)N/N=C/c2sc(N3CCOCC3)nc2-c2ccccc2)cc1OC
IC50 [3]: 63.1 µM (inactive)

Cc1ccc2nc(-c3ccc(NC(=O)CN4CCN(c5ccccn5)CC4)cc3)sc2c1
EC50 [11]: 9.19 µM (active)
EC50 (H4): 44.3 µM (active)

O=C(NCCCN1CCC(Cc2ccccc2)CC1)C1CCN(S(=O)(=O)N2CCOCC2)CC1
AC50 (Cytochrome P450 3A4 [1]): inconclusive
AC50 (Cytochrome P450 2C19): 25.1 µM (inconclusive)

CCOc1ccccc1CNCCN1CCOCC1.Cl
EC50 [14]: > 260 µM (inactive)
AC50 (Cytochrome P450 3A4 [1]): inconclusive

CC(=O)Nc1ccc(N2CCN(C(C)=O)CC2)cc1
IC50 (Estrogen receptor beta): > 50 µM (not active)

CCN(CC(=O)Nc1c(F)cccc1F)C(=O)c1cc(S(=O)(=O)N2CCOCC2)ccc1N1CCCC1
IC50 [3]: > 80 µM (inactive)
